Measurements taken from ChEMBL document CHEMBL1201862, “PubChem BioAssay data set” (2004).
Several values for one entry are separate records, joined by “and”; a condition that tells them apart may be missing. Equal entries are not always repeated. Activity calls are given as the source filed them.

Assays:
Caspase-3 = target: T1, Caspase-3 (Homo sapiens, UniProt P42574); assay: inhibition of recombinant caspase-3 activity – biochemical, luminescence, set 2, selectivity assay for SENP protease inhibitor project, SAR follow-up (AID 588599); type: functional
T1 sequence (P42574 whole entry): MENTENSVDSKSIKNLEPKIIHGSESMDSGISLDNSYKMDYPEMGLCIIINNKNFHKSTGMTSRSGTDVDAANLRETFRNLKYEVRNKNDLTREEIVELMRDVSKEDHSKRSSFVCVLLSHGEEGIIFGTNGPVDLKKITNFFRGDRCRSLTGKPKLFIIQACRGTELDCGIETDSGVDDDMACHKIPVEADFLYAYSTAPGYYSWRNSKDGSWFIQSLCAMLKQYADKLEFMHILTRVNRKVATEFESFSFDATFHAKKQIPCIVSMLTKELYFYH

[1] = target: T2, Sentrin-specific protease 8 (Homo sapiens, UniProt Q96LD8); assay: inhibition of sentrin protease 8 – biochemical, luminescence, set 2, SAR follow-up (AID 588601); type: functional
T2 sequence (Q96LD8 whole entry): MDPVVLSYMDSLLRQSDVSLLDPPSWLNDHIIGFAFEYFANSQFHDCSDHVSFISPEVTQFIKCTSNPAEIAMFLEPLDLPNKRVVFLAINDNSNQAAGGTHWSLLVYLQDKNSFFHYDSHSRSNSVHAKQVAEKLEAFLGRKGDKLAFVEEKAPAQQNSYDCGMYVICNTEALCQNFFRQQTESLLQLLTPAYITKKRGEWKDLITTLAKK

[2] = target: T3, Sentrin-specific protease 7 (Homo sapiens, UniProt Q9BQF6); assay: inhibition of human SENP7 cleavage activity – biochemical, luminescence, set 2, SAR follow-up (AID 588600); type: functional
T3 sequence (Q9BQF6 whole entry): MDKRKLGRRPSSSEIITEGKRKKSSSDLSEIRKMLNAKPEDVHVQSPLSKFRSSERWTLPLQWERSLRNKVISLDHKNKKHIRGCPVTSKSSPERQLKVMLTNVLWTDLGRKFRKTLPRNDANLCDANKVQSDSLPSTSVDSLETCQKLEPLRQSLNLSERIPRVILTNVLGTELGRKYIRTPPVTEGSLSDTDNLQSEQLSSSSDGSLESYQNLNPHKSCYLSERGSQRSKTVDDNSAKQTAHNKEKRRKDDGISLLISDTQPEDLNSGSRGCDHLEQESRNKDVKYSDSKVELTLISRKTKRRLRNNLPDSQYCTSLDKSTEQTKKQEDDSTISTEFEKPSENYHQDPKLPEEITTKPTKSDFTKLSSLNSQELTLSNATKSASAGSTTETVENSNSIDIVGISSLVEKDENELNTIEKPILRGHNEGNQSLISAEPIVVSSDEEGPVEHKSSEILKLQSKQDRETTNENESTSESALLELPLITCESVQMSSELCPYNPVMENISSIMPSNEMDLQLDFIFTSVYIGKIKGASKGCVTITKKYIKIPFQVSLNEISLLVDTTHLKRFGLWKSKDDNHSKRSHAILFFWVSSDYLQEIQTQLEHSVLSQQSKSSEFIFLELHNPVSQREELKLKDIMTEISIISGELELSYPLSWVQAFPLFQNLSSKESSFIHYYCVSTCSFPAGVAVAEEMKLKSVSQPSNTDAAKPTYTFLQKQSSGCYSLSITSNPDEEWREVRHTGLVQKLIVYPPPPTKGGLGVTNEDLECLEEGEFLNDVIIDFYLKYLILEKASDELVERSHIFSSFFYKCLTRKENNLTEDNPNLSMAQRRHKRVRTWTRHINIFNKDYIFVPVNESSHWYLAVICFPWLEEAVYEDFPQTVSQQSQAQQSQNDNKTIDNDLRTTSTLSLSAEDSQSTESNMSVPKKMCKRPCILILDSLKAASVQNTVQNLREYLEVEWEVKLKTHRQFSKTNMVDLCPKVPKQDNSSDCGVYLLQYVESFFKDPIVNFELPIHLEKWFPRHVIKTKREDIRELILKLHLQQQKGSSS

[3] = target: T4, Sentrin-specific protease 6 (Homo sapiens, UniProt Q9GZR1); assay: inhibition of human SENP6 catalytic domain – biochemical, luminescence, set 2, SAR follow-up (AID 588598); type: functional
T4 sequence (Q9GZR1 whole entry): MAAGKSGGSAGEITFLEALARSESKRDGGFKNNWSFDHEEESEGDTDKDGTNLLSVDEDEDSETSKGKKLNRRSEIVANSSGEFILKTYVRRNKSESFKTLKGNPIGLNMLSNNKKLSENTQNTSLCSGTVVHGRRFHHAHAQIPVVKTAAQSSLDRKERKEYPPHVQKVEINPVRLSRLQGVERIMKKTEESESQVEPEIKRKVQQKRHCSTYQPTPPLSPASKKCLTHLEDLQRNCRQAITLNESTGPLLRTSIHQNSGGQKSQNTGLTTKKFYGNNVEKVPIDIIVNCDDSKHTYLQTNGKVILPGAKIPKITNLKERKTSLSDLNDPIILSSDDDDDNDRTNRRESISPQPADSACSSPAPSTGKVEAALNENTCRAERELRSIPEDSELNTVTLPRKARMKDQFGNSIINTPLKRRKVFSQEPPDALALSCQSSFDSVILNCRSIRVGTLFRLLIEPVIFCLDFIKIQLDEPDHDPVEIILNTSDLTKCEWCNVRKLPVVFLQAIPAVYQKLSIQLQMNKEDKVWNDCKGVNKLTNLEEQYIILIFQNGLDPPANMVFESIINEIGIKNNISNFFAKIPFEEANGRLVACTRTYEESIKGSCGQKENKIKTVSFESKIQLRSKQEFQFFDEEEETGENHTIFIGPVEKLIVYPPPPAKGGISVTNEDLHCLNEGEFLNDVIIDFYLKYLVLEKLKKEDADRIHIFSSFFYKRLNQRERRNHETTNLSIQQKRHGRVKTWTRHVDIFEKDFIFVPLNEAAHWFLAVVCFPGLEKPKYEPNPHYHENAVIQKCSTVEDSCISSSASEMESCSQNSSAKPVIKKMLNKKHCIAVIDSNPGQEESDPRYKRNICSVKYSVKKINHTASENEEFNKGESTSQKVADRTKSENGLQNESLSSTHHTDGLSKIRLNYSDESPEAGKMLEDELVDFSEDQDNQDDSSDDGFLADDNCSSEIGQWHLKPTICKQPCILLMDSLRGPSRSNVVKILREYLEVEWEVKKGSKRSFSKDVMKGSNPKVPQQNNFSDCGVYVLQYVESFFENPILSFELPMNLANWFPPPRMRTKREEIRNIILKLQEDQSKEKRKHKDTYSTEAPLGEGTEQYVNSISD

Candida albicans [4] = assay: antifungal activity against resistant Candida strain – CaCi-8, fluconazole, Alamar Blue, dry powder, dose response (AID 488807); type: functional, organism-based
Candida albicans [5] = assay: Candida growth effect without fluconazole – C. albicans CaCi-2, dry powder, counter-screen for antifungal drug resistance project, dose response (AID 488802); type: functional, organism-based
NIH3T3 = assay: mammalian cell viability counter-check – Alamar Blue, fluconazole, dry powder, cytotoxicity control for antifungal drug resistance project, dose response (AID 488809); type: functional, cell-based; details: Mus musculus
[6] = target: Induced myeloid leukemia cell differentiation protein Mcl-1 (Homo sapiens, UniProt Q07820); type: functional
Beta-galactosidase = Beta-galactosidase (Escherichia coli, UniProt Q8VNN2); assay: detection-enzyme interference by beta-gal modulators – biochemical, E. coli enzyme, set 3, artefact control for CCR6 antagonist project, dose response (AID 504712); type: functional
[7] = target: Neurotensin receptor type 1 (Homo sapiens, UniProt P30989); type: functional;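 also: Image-based confirmatory dose-response assay measuring agonist activity at NTR1; NTR1-expressing U2OS osteosarcoma cells imaged for beta-arrestin GFP spot formation; agonist potency where compounds increase beta-arrestin recruitment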
HEK293 = assay: EBV LMP1 TES2 canonical NF-kB signalling blockers – cell-based, HEK293, luciferase, cherry-pick, dose response (AID 588343); type: functional; details: Homo sapiens
[8] = target: Latent membrane protein 1 (Human herpesvirus 4 (strain B95-8), UniProt P03230); assay: LMP1 TES1 pathway selectivity over dsRED control – imaging, HEK293T, dual-color eGFP/dsRED, cherry-picks, selectivity assay for LMP1 NF-kB inhibitor project, dose response (AID 588398); type: functional, cell-based
[9] = reduction of Shn3 3'UTR-driven luciferase in osteoblasts – cell-based, Clone20 osteoblasts, firefly luciferase, cherry-picked, dose response (AID 624132); type: functional;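 also: firefly luciferase luminescence from reporter carrying the Shn3 3'UTR in osteoblasts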
[10] = loss of viability in HepG2 cells – cell-based, CellTiter-Glo, cherry-picked, cytotoxicity control for Shn3 inhibitor project, dose response (AID 624134); type: functional
[11] = non-specific 3'UTR reporter inhibition in Clone20-Shn3RL – cell-based, Renilla luciferase, cherry-picked, counter-screen for Shn3 inhibitor project, dose response (AID 624133); type: functional
[12] = Fluorescence-based cell-based high throughput dose response assay for inhibitors of the interaction of nucleotide-binding oligomerization domain containing 2 (NOD2) and the receptor-interacting serine-threonine kinase 2 (RIPK2).; type: functional; details: Homo sapiens
Beta Lactamase = Beta Lactamase (Pseudomonas aeruginosa, UniProt Q932Y6); assay: BLA reporter interference, concentration series – BLA reporter cells, FRET fluorescence, artefact control for NOD2-RIPK2 interaction inhibitor project, dose response (AID 651552); type: functional, cell-based
[13] = target: Luciferin 4-monooxygenase (Photinus pyralis, UniProt P08659); assay: inhibition of purified Photinus pyralis luciferase – biochemical, luminescence, dose response (AID 1891)
[14] = Luminescence Cell-Based Dose Confirmation HTS to Identify Inhibitors of Platelet Dense Granule Release. [Related pubchem assays: 1663 (Primary HTS), 1678 (Summary of Project)]; type: functional
[15] = THP-1 cell cytotoxicity, cytotoxicity control, set 5 (AID 588443); type: functional
[16] = Vero cell viability loss – purified and synthesized compounds, set 6, cytotoxicity control for M. tuberculosis inhibitor project, dose response (AID 588445); type: functional; details: Mycobacterium tuberculosis
[17] = target: Protein disulfide-isomerase (Homo sapiens, UniProt P07237); assay: inhibition of PDI-driven insulin aggregation – biochemical, turbidity, absorbance, cherry-picked samples, dose response (AID 602350); type: functional
[18] = target: Scavenger receptor class B member 1 (Mus musculus, UniProt Q61009); assay: blockers of DiI-HDL lipid transfer via SR-BI – cell-based, ldlA[mSR-BI] CHO, DiI fluorescence, dry powder, set 10, dose response (AID 624029); type: functional
[19] = target: Cell division cycle 7-related protein kinase (Homo sapiens, UniProt O00311); type: functional;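 also: value obtained from a kinome-wide kinase panel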
Wee1-like protein kinase = Wee1-like protein kinase (Homo sapiens, UniProt P30291); assay: Navigating the Kinome. Panel member name: WEE1; type: functional
[20] = target: Mast/stem cell growth factor receptor Kit (Homo sapiens, UniProt P10721); type: functional;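 also: KIT entry within a kinase panel assay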
[21] = target: Mitogen-activated protein kinase 13 (Homo sapiens, UniProt O15264); type: functional
[22] = target: Serine/threonine-protein kinase pim-1 (Homo sapiens, UniProt P11309); type: functional
[23] = target: Homeodomain-interacting protein kinase 2 (Homo sapiens, UniProt Q9H2X6); type: functional;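 also: measured within a kinome-wide kinase profiling panel, HIPK2 being one panel member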
[24] = target: Interleukin-1 receptor-associated kinase 4 (Homo sapiens, UniProt Q9NWZ3); type: functional
[25] = target: Glycogen synthase kinase-3 beta (Homo sapiens, UniProt P49841); type: functional;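 also: value comes from a broad kinome profiling panel, with GSK3B as the panel member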
[26] = target: cAMP-dependent protein kinase catalytic subunit alpha (Homo sapiens, UniProt P17612); type: functional
[27] = target: Dual specificity protein kinase CLK4 (Homo sapiens, UniProt Q9HAZ1); type: functional
[28] = target: Mitogen-activated protein kinase kinase kinase kinase 4 (Homo sapiens, UniProt O95819); type: functional
[29] = target: Cyclin-dependent kinase 19 (Homo sapiens, UniProt Q9BWU1); assay: Navigating the Kinome. Panel member name: CDC2L6; type: functional
[30] = target: Cyclin-dependent kinase 8 (Homo sapiens, UniProt P49336); assay: Navigating the Kinome. Panel member name: CDK8; type: functional

Sequence of Protein disulfide-isomerase (P07237 whole entry): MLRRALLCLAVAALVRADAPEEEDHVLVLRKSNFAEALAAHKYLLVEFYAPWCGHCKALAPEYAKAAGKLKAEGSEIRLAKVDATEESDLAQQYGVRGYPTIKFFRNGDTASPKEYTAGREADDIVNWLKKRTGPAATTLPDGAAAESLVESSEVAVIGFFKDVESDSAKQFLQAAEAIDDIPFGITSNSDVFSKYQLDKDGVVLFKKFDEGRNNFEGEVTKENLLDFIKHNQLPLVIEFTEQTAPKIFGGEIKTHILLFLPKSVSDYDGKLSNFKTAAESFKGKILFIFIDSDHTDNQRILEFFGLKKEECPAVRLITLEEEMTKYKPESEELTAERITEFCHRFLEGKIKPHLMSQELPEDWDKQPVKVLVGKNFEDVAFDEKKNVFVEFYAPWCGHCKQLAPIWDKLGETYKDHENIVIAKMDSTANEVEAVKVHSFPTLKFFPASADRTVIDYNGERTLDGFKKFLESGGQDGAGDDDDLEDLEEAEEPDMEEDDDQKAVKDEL
Sequence of Cell division cycle 7-related protein kinase (O00311 whole entry): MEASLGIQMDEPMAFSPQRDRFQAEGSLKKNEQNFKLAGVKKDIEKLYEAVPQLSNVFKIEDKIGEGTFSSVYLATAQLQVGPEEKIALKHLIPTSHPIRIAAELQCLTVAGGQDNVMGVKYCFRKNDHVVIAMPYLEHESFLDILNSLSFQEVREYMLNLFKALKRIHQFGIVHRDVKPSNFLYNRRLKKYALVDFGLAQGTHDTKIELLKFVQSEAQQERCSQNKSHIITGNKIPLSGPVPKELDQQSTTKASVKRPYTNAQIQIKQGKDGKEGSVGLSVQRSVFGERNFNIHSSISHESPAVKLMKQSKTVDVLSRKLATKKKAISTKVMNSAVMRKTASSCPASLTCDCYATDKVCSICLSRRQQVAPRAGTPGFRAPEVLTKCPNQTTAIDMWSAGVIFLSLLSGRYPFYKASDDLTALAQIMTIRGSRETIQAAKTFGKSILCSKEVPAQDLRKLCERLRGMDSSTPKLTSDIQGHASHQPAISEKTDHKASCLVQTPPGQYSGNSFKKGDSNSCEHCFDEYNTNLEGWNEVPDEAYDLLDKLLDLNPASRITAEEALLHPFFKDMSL
Sequence of Beta-galactosidase (Q8VNN2 whole entry): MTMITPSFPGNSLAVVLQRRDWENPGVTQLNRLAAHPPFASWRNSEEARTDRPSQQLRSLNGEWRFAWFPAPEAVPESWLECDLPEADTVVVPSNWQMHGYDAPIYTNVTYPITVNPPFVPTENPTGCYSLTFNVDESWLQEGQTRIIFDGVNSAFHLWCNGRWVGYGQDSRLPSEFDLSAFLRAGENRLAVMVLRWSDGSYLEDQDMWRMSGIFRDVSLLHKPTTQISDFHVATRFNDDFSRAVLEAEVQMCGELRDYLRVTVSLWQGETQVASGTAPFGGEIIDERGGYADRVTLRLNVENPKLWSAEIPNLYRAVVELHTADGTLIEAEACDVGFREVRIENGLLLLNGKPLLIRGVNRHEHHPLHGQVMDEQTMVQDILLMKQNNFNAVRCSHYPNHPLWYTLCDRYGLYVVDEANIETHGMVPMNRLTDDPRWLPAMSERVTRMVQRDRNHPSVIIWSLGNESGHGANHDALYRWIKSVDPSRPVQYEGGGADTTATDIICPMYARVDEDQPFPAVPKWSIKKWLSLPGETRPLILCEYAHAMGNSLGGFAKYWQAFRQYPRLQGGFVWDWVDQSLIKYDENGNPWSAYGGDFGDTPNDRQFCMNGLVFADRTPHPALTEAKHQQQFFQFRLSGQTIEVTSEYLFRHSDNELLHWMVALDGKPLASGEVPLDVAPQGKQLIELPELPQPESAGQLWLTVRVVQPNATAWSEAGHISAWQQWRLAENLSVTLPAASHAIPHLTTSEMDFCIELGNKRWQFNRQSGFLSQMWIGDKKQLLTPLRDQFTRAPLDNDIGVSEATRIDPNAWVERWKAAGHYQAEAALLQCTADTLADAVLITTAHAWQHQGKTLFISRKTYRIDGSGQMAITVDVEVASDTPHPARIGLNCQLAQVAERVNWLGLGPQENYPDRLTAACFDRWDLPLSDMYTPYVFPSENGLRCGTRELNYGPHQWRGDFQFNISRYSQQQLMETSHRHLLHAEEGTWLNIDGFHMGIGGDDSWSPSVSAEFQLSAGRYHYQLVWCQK
Sequence of Homeodomain-interacting protein kinase 2 (Q9H2X6 whole entry): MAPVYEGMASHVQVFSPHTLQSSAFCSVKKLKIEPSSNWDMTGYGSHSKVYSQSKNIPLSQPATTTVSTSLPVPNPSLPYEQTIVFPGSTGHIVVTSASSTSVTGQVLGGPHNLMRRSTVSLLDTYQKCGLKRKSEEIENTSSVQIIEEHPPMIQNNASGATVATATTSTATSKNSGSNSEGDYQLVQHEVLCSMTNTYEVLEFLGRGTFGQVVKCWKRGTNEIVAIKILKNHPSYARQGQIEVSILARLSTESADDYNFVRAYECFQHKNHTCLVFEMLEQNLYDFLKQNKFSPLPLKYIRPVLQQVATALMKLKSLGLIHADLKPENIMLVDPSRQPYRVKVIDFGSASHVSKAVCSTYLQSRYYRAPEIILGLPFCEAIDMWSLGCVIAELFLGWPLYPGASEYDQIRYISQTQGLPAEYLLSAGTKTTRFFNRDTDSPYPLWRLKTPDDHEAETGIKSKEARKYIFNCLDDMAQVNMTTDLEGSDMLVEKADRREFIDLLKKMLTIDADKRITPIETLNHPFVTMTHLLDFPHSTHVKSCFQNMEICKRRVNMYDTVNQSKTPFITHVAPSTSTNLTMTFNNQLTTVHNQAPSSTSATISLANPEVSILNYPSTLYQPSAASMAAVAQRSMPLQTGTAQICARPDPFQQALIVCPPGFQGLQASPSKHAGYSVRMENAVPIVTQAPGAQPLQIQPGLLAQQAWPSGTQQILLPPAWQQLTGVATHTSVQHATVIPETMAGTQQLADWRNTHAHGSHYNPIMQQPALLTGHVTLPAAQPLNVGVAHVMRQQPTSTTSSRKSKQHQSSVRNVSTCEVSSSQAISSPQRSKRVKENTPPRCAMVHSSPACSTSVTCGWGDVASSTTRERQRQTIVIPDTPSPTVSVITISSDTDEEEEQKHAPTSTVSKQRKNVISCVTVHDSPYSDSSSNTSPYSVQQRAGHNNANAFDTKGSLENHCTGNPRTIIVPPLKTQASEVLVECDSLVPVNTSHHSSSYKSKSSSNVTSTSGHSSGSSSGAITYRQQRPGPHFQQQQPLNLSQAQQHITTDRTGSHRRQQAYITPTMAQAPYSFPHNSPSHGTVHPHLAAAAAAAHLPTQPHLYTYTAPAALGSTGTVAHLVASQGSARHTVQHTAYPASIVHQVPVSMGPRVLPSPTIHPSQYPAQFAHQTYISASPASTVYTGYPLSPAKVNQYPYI
Sequence of Luciferin 4-monooxygenase (P08659 whole entry): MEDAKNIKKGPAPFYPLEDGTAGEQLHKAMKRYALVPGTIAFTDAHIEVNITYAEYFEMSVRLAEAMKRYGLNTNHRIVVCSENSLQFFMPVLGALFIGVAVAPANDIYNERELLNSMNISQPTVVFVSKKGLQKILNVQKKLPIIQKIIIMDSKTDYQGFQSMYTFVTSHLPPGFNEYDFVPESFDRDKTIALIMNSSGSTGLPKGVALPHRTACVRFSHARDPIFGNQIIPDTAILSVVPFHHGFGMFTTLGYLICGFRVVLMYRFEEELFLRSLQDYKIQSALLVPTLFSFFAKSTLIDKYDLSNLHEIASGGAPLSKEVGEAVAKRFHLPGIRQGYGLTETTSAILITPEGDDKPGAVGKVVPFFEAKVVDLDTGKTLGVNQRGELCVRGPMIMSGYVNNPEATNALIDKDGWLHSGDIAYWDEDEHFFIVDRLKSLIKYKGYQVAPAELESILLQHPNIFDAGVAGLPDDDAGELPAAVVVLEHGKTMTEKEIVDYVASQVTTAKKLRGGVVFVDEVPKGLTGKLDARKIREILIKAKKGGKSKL
Sequence of Glycogen synthase kinase-3 beta (P49841 whole entry): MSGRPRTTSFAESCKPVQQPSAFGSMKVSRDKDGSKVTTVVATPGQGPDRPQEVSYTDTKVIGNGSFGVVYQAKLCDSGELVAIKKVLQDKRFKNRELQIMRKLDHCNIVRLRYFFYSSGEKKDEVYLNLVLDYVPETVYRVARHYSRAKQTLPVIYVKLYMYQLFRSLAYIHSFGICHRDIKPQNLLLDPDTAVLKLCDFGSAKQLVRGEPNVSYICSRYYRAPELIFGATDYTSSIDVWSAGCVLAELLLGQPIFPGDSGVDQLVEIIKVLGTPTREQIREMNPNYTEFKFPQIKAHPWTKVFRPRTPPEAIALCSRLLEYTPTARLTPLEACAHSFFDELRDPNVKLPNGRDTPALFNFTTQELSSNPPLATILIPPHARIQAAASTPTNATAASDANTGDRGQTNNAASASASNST
Sequence of Cyclin-dependent kinase 19 (Q9BWU1 whole entry): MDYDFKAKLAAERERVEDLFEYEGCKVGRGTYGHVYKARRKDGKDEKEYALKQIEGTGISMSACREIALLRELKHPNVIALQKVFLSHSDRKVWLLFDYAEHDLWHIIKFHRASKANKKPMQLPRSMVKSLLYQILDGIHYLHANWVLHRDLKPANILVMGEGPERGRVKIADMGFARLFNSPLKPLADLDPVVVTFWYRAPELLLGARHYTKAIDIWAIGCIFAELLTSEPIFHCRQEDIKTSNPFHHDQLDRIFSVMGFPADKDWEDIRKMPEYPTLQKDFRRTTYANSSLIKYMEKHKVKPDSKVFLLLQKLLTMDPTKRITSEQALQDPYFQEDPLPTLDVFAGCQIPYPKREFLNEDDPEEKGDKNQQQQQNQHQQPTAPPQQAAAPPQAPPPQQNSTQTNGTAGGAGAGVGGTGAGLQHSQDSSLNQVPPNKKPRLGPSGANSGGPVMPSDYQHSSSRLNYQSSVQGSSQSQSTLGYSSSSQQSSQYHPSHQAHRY

Structure (SMILES): NS(=O)(=O)c1ccc(CCNC(=O)C(=O)c2c[nH]c3ccccc23)cc1
- IC50 (Caspase-3): > 99 µM (inactive)
- IC50 [1]: > 99 µM (inactive)
- IC50 [2]: > 99 µM (inactive)
- IC50 [3]: > 99 µM (inactive)

Structure (SMILES): COc1ccc(NC(=O)Cn2c3ccccc3c3nc4n(c(=O)c32)CCS4)cc1
- AC50 (Candida albicans [4]): 12.7 µM (active)
- AC50 (Candida albicans [5]): 50.1 µM (active)
- AC50 (NIH3T3): 34.2 µM (active)

Structure (SMILES): CCOc1ccc(/C=C/[N+](=O)[O-])c2ccccc12
- IC50 [6]: 2.18 µM (active)
- IC50 (Beta-galactosidase): > 66.6 µM (inactive)
- EC50 [7]: 9.56 µM (active)
- AC50 (HEK293): 4.67 µM (active)
- AC50 [8]: 1.63 µM (active)
- AC50 [9]: 4.27 µM (active)
- AC50 [10]: 3.78 µM (active)
- AC50 [11]: 13.9 µM (active)
- IC50 [12]: 1.76 µM (active)
- IC50 (Beta Lactamase): 43.1 µM (inactive)

Structure (SMILES): O=C(NCCc1ccc(Cl)cc1)c1ccc(CNc2c(N3CCOCC3)c(=O)c2=O)cc1
- EC50 [13]: > 112 µM (not active)
- EC50 [14]: > 112 µM (not active)
- CC50 [15]: > 100 µM (active)
- CC50 [16]: > 100 µM (active)

Structure (SMILES): C[C@@H]1CN([C@H](C)CO)C(=O)c2cc(NC(=O)Cc3cn(C)c4ccccc34)ccc2O[C@H]1CN(C)S(=O)(=O)c1ccc(F)cc1
- AC50 [17]: 1.26 µM (active) and 16.4 µM (active)
- AC50 [18]: 0.00202 µM (active)

Structure (SMILES): c1cc(NC2CCCCC2)nc(Nc2ccc3cn[nH]c3c2)n1
- Ki [19]: 2 µM (active)
- Ki (Wee1-like protein kinase): 1 µM (active)

Structure (SMILES): COc1cc(-c2nn(C3CCC(N4CCN(C(C)=O)CC4)CC3)c3ncnc(N)c23)ccc1NC(=O)c1cc2ccccc2n1C (configuration not stated)
- Ki [20]: > 1.26 µM (inactive)
- Ki [21]: > 7.94 µM (inactive)

Structure (SMILES): NC(=O)c1ccc(Nc2ncnc3[nH]cc(-c4ccccc4)c23)cc1
- Ki [22]: 3.98 µM (active)
- Ki [19]: 0.0126 µM (active)
- Ki [23]: 0.2 µM (active)
- Ki [24]: 0.0631 µM (active)
- Ki [25]: 0.158 µM (active)
- Ki [26]: 2 µM (active)
- Ki [27]: 0.01 µM (active)
- Ki [28]: 0.0398 µM (active)

Structure (SMILES): Nc1nsc2cccc(C(=O)Nc3cccc(CNC(=O)Nc4cccc(F)c4)c3)c12
- Ki [29]: > 100 µM (inactive)
- Ki [30]: 3.98 µM (active)
